This passage reports 3 h FOB score results from the OligoGym collection.

HELM strings list units from the 5' end as sugar, base in round brackets, then linkage (d deoxyribose, r ribose, m 2'-O-methyl, p phosphodiester). Strings are as the collection lists them; they lack the last nucleoside at the 3' end of the tested compound. [moe] = 2'-O-(2-methoxyethyl) (MOE); [sp] = phosphorothioate linkage; [m5C] = 5-methylcytosine

The target of this data set is SCN2A. Kind of data set: mouse, dose not given. Particulars: ASO.
The substance “RNA1{[moe](G)[sp].[moe]([m5C])p.[moe](A)p.[moe](T)p.[moe](G)p.d(T)[sp].d(T)[sp].d(T)[sp].d(A)[sp].d(T)[sp].d([m5C])[sp].d(T)[sp].d(T)[sp].d(A)[sp].d(G)[sp].[moe](T)p.[moe](T)p.[moe]([m5C])[sp].[moe](T)}$$$$ (last 3' nucleoside missing)” showed a 3 h FOB score of 1 score 0-7.

Turning to “RNA1{[moe](G)[sp].[moe](A)p.[moe]([m5C])p.[moe](A)p.d(T)[sp].d(A)[sp].d(T)[sp].d(T)[sp].d(T)[sp].d(T)[sp].d(T)[sp].d([m5C])[sp].d(T)[sp].d(A)[sp].[moe]([m5C])p.[moe](A)p.[moe]([m5C])p.[moe](T)[sp].[moe](G)}$$$$ (last 3' nucleoside missing)”, the 3 h FOB score stood at 1 score 0-7.

“RNA1{[moe](T)[sp].[moe]([m5C])p.[moe](A)p.[moe](T)p.[moe](G)p.[moe]([m5C])p.d(A)[sp].d(T)[sp].d(A)[sp].d(A)[sp].d(T)[sp].d([m5C])[sp].d([m5C])[sp].d([m5C])[sp].d(A)[sp].d(T)[sp].[moe](T)p.[moe](A)[sp].[moe](T)}$$$$ (last 3' nucleoside missing)” displayed a 3 h FOB score of 0 score 0-7.

In turn, “RNA1{[moe](G)[sp].[moe]([m5C])p.[moe](A)p.[moe](T)p.d(A)[sp].d(T)[sp].d(T)[sp].d([m5C])[sp].d(T)[sp].d(A)[sp].d(A)[sp].d([m5C])[sp].d(A)[sp].d(T)[sp].[moe](G)p.[moe](G)p.[moe](T)p.[moe]([m5C])[sp].[moe](T)}$$$$ (last 3' nucleoside missing)” came in with a 3 h FOB score of 1.67 score 0-7.

In turn, “RNA1{[moe]([m5C])[sp].[moe](T)p.[moe](A)p.[moe](T)[sp].d(T)[sp].d(T)[sp].d(T)[sp].d(A)[sp].d(T)[sp].d(A)[sp].d(A)[sp].d(A)[sp].[moe](T)p.[moe](G)p.[moe]([m5C])p.[moe]([m5C])[sp].[moe](G)}$$$$ (last 3' nucleoside missing)” gave a 3 h FOB score of 0 score 0-7.

As for “RNA1{[moe](T)[sp].[moe](A)p.[moe](T)p.[moe](T)p.d(T)[sp].d(T)[sp].d(A)[sp].d(T)[sp].d(A)[sp].d(A)[sp].d(A)[sp].d(T)[sp].d(G)[sp].d([m5C])[sp].[moe]([m5C])p.[moe](G)p.[moe](A)p.[moe]([m5C])[sp].[moe](T)}$$$$ (last 3' nucleoside missing)”, the 3 h FOB score was 2.67 score 0-7.
